Measured values published in patent publication US20200046671A1, “APOBEC3B MUTAGENESIS AND IMMUNOTHERAPY” (Regents of the University of Minnesota, priority 2015, published 2020).
“Also recorded” adds a separate entry of the source. Peptide text beside a SMILES is read from it. * marks the point of attachment. Cbz = O=C(OCc1ccccc1)*

How the values were obtained:
Format in all cases: cell-based, human
[1] = tested on: cancer cell lines; experiment: Cell cycle and viability of AEB071-treated cancer cell lines; conditions: 10 μM, 48 hours, data not shown
Experimental: (§1) Each line was treated for 48 hours with 10 μM AEB071, and then APOBEC3B mRNA and protein levels were quantified by RT-qPCR and immunoblotting. As above, no effects on the cell cycle or cell viability were observed (data not shown). This is important since higher concentrations of AEB071 are known to cause cell cycle perturbations and apoptosis in certain cell types. APOBEC3B mRNA levels were reduced by more than half in 7/16 cell lines, including the breast cancer cell lines MDA-MB-468, MDA-MB-453, and HCC1806, the ovarian cancer cell line OVCAR5, and the head/neck lines SQ-20B, JSQ3, and TR146 (FIG. 4B, histogram). Changes of protein levels largely mirrored the mRNA results (FIG. 4B, immunoblot).

[2] = tested on: PMA-induced APOBEC3B upregulation; experiment: Inhibitor pretreatment before PMA induction of APOBEC3B in MCF10A cells, RT-qPCR
Experimental: PMA is a well-known agonist of PKC, but it also affects other cellular processes. To determine whether APOBEC3B induction by PMA occurs through PKC signal transduction or an alternative mechanism, a panel of existing PKC inhibitors that vary with respect to class selectivity were analyzed. MCF10A cells were pre-treated for 30 minutes with varying concentrations of the pan-PKC inhibitor G66983 (Gschwendt et al., FEBS Lett. 392(2):77-80, 1996) and then treated for six hours with PMA (25 ng/mL). […] As additional controls, MCF10A cells were pretreated in parallel with the phosphoinositol 3 kinase (PI3K) inhibitor, LY294002, and the mitogen-activated protein kinase kinase (MEK) inhibitor, U0126, prior to PMA induction (FIGS. 2B and 2C).
(§2) For induction experiments, 2.5×10^5 cells were plated in a 6-well plate 1 day prior to drug treatment. PMA was then added to the media and incubated at 37° C. with 5% CO2 for six hours unless otherwise indicated. Cells were harvested, RNA was extracted, and RT-qPCR was performed as previously reported (Refsland et al. 2010, Nucleic Acids Res 38:4274-4284). For experiments utilizing inhibitors, cells were pretreated with inhibitors 30 minutes prior to PMA induction (25 ng/mL). PMA (Thermo Fisher Scientific, Inc., Waltham, Mass.), cyclohexamide (Acros Organics, Thermo Fisher Scientific, Inc., Waltham, Mass.), G66983 (Cayman Chemical co., Ann Arbor, Mich.), LY294002 (EMD Chemicals, Merck KGaA, Darmstadt, Germany), U0126 (EMD Chemicals, Merck KGaA, Darmstadt, Germany), AEB071 (Medchemexpress, Monmouth Junction, N.J.), Go6976 (Enzo Life Sciences, Inc., Farmingdale, N.Y.), BAY 11-7082 (R&D Systems, INc., Minneapolis, Minn.), and MG132 (Thermo Fisher Scientific, Inc., Waltham, Mass.) were stored as recommended. NIKi/Compound 31 was synthesized as described (Li et al., 2013, Bioorganic & Medicinal Chemistry Letters 23:1238-1244).

[3] = tested on: APOBEC3B; experiment: Endogenous APOBEC3B expression in cancer cell lines treated with PKC inhibitor; conditions: 10 μM, 48 hours; breast, ovarian, bladder and head/neck cancer cell lines
Experimental: Four breast cancer cell lines, four ovarian cancer cell lines, four bladder cancer cell lines, and four head/neck cancer cell lines were analyzed to determine whether the constitutively high levels of endogenous APOBEC3B observed in many human cancer cell lines occurs through the PKC pathway. The selected cell lines expressed a 10-fold range of endogenous APOBEC3B mRNA levels (FIG. 4A).
as §1

[4] = tested on: MCF10A cells; experiment: Morphology and viability of inhibitor-treated MCF10A cells; conditions: low concentrations used (5 μM and around), data not shown
Experimental: PMA is a well-known agonist of PKC, but it also affects other cellular processes. To determine whether APOBEC3B induction by PMA occurs through PKC signal transduction or an alternative mechanism, a panel of existing PKC inhibitors that vary with respect to class selectivity were analyzed. MCF10A cells were pre-treated for 30 minutes with varying concentrations of the pan-PKC inhibitor G66983 (Gschwendt et al., FEBS Lett. 392(2):77-80, 1996) and then treated for six hours with PMA (25 ng/mL). […] APOBEC3B was suppressed to background levels with 5 μM G66983, as well as higher concentrations (FIG. 2A). […] As additional controls, MCF10A cells were pretreated in parallel with the phosphoinositol 3 kinase (PI3K) inhibitor, LY294002, and the mitogen-activated protein kinase kinase (MEK) inhibitor, U0126, prior to PMA induction (FIGS. 2B and 2C).

[5] = tested on: APOBEC3B promoter region; experiment: Chromatin immunoprecipitation after PMA treatment of MCF10A cells; conditions: PMA for two hours, ChIP-qPCR
Experimental: Next, a series of chromatin immunoprecipitation (ChIP) experiments were performed to determine whether the canonical or noncanonical NFκB pathway is responsible for upregulating APOBEC3B. Primer sets were designed for each of the predicted NFκB binding sites near the APOBEC3B transcriptional start site, as well as a control set in the promoter region of NFKBIA (FIG. 3E). ChIP was performed for RELA, RELB, RNA POL II (positive control), and isotype matched IgG (negative control). RELA, RELB, and RNA POL II were all bound to the NFKBIA promoter following PMA treatment (FIG. 3F). In addition, RNA POL II strongly bound to the APOBEC3B gene near the transcriptional start site (FIG. 3F). Also, RELB bound both near the transcriptional start site and at sites 4 and 5, which are located in intron 2 and too close together to be distinguished by this procedure. Binding also may occur at lower levels at site 3 in intron 1, but the IgG signal was too high to distinguish background from actual binding. These ChIP data strongly implicate the noncanonical NFκB pathway, specifically RELB (and not RELA), in directly inducing APOBEC3B transcription in response to PMA activation of PKC.
MCF10A cells were treated with either DMSO or 25 ng/mL PMA for two hours. Cross-linking was performed with 1% formaldehyde for 10 minutes at room temperature and quenched with 150 mM glycine. […]

[6] = tested on: APOBEC family members; experiment: mRNA levels of the other APOBEC family members after PMA treatment, RT-qPCR; conditions: MCF10A cells
Experimental: (§3) A panel of immortalized normal human epithelial cells lines and breast cancer cell lines was treated with the model PKC-NFκB pathway activator PMA (or equal amounts of DMSO as a negative control) and previously validated reverse transcription quantitative PCR (RT-qPCR) assays were used to measure mRNA levels of all eleven human APOBEC family members. APOBEC3B mRNA was induced specifically by PMA treatment of several lines including the immortalized normal breast epithelial cell line MCF10A (FIG. 6). Under standard cell culture conditions, MCF10A expresses low levels of APOBEC3B and APOBEC3F, even lower levels of APOBEC3G and APOBEC3H, high levels of APOBEC3C, and undetectable levels of all other APOBEC family members.
For induction experiments, 2.5×10^5 cells were plated in a 6-well plate 1 day prior to drug treatment. PMA was then added to the media and incubated at 37° C. with 5% CO2 for six hours unless otherwise indicated. Cells were harvested, RNA was extracted, and RT-qPCR was performed as previously reported (Refsland et al. 2010, Nucleic Acids Res 38:4274-4284). For experiments utilizing inhibitors, cells were pretreated with inhibitors 30 minutes prior to PMA induction (25 ng/mL). […]

[7] = tested on: PKCα (PRKCA); experiment: RNA sequencing of PMA-treated MCF10A cells, PKC isoforms; conditions: RNAseq, in comparison to DMSO
Experimental: (§4) Two sets of MCF10A cells in duplicate were treated every eight hours with media supplemented with PMA or DMSO for 48 hours. At 48 hours, RNA was extracted using an RNeasy Mini Kit (Qiagen, Hilden, Germany). Total RNA was submitted to the University of Minnesota Genomics Center for sequencing on the Illumina HiSeq 2000 platform. Raw reads were analyzed using both DESeq2 (Love et al., 2014, Genome Biol. 15:550) and the Tuxedo suite (Trapnell et al., 2012, Nat Protoc. 7:562-578) to identify changes in mRNA expression in PMA treated versus untreated cells.

[8] = tested on: RELA, NFKB1, RELB and NFKB2; experiment: RNA sequencing of PMA-treated MCF10A cells, NFκB components; conditions: RNAseq
Experimental: as §4

[9] = tested on: APOBEC3B; experiment: PMA induction of APOBEC3B mRNA in MCF10A cells, RT-qPCR
Experimental: as §3, §2

[10] = 30-minute pretreatment, then PMA 25 ng/mL for six hours

SMILES: CN1CCN(c2nc(C3=C(c4c[nH]c5ccccc45)C(=O)NC3=O)c3ccccc3n2)CC1 [AEB071]
- effects on the cell cycle or cell viability [1]: no effects
- potency relative to G66983 in suppressing APOBEC3B induction [2]: approximately 10 fold
- effect on PMA-induced APOBEC3B induction [2, 10]: inhibited; also recorded: clear dose dependent suppression
- concentration causing complete suppression of APOBEC3B induction ([2]; pretreatment, then PMA): 500 nM
- cell lines in which APOBEC3B mRNA levels were reduced by more than half [3]: 7/16

SMILES: Cc1ccc(S(=O)(=O)/C=C/C#N)cc1 [BAY 11-7082]
- effect on PMA-induced APOBEC3B induction [2, 10]: dose responsive inhibition; also recorded: strong dose-responsive drops

SMILES: CN(C)CCCn1cc(C2=C(c3c[nH]c4ccccc34)C(=O)NC2=O)c2ccccc21 [BIM-1]
- effect on PMA-induced APOBEC3B induction [2, 10]: inhibited

SMILES: COc1ccc2c(c1)c(C1=C(c3c[nH]c4ccccc34)C(=O)NC1=O)cn2CCCN(C)C [G66983]
- concentration at which APOBEC3B was suppressed to background levels [2, 10]: 5 µM
- effect on PMA-induced APOBEC3B induction [2, 10]: dose responsive suppression
- effect on PMA-induced APOBEC3B induction ([2]; 30-minute pretreatment, then PMA 25 ng/mL for six hours, listed as Go6983): inhibited
- morphological defects or viability issues [4]: No morphological defects or viability issues

SMILES: Cn1c2ccccc2c2c3c(c4c5ccccc5n(CCC#N)c4c21)CNC3=O [Go6976]
- effect on PMA-induced APOBEC3B induction [2, 10]: inhibited

SMILES: CC(C)C[C@@H](C=O)NC(=O)[C@H](CC(C)C)NC(=O)[C@H](CC(C)C)NC(=O)OCc1ccccc1 [MG132] (Cbz-Leu-Leu-Leu-aldehyde)
- effect on PMA-induced APOBEC3B induction [2, 10]: dose responsive inhibition; also recorded: decreased in a dose dependent manner

SMILES: CCCCCCCCCCCCCC(=O)O[C@@H]1[C@@H](C)[C@@]2(O)[C@@H](C=C(CO)C[C@]3(O)C(=O)C(C)=C[C@@H]23)[C@@H]2C(C)(C)[C@]12OC(C)=O [PMA, phorbol 12-myristate 13-acetate]
- recruitment of RELB and p105/p52 to the APOBEC3B promoter region [5]: specifically and robustly recruited
- changes in expression levels of other APOBEC family members [6]: no detectable changes
- PKCα mRNA levels after PMA treatment [7]: unchanged
- expression levels of canonical and noncanonical NFκB components after PMA treatment [8]: unaffected
- time after treatment at which significant APOBEC3B mRNA induction was detected ([9]; PMA 25 ng/ml): 30 min
- time post-treatment by which maximal APOBEC3B mRNA levels were observed ([9]; PMA 25 ng/ml): three
- PMA concentration at which APOBEC3B induction was near maximal ([9]; dose response): 25 ng/mL
- lowest PMA concentration that induced APOBEC3B ([9]; dose response): 1 ng/mL

SMILES: NC(=O)Nc1sc(-c2ccc(F)cc2)cc1C(N)=O [TPCA-1]
- effect on PMA-induced APOBEC3B induction [2, 10]: near the IC50 for IKKα, not IKKβ

SMILES: N#CC(=C(/N)Sc1ccccc1N)/C(C#N)=C(\N)Sc1ccccc1N [U0126]
- effect on PMA-induced APOBEC3B induction [2, 10]: no suppression
- effect on PMA-induced APOBEC3B induction ([2]; 30-minute pretreatment, then PMA 25 ng/mL for six hours, listed as UO126): not

SMILES: C[C@@H]1C[C@@H]([C@H](O)CC2CC(=O)NC(=O)C2)C(=O)[C@@H](C)C1 [cyclohexamide]
- effect on kinetics of APOBEC3B upregulation by PMA ([2]; 30-minute pretreatment with 10 μg/mL cyclohexamide): not affected
